This test relates to LPS induced TNF release. The experiment in a line: THP1 cell assay (LPS induced TNF release). It is filed as cell-based. The conditions noted are these: Homo sapiens, THP-1; THP1 cells, LPS induced TNF-α secretion, 3 h at 37° C. The protocol: Lipopolysaccharide-Activated THP1 Cell TNF Production Assay
THP1 cells are resuspended in fresh THP1 media (RPMI 1640, 10% heat-inactivated FBS, 1XPGS, 1XNEAA, plus 30 μM OME) at a concentration of 1E6/mL. One hundred microliters of cells per well are plated in a polystyrene 96-well tissue culture. One microgram per mL of bacterial LPS is prepared in THP1 media and is transferred to the wells. Test compounds are dissolved in 100% DMSO and are serially diluted 3-fold in a polypropylene 96-well microtiter plate (drug plate). HI control and LO control wells contain only DMSO. One microliter of test compound from the drug plate followed by 10 μL of LPS are transferred to the cell plate. The treated cells are induced to synthesize and secrete TNF-α at 37° C. for 3 h. Forty microliters of conditioned media are transferred to a 96-well polypropylene plate containing 110 μL of ECL buffer (50 mM Tris-HCl pH 8.0, 100 mM NaCl, 0.05% Tween 20, 0.05% NaN3 and 1% FBS) supplemented with 0.44 nM MAB610 monoclonal Ab (R&D Systems), 0.34 nM ruthenylated AF210NA polyclonal Ab (R&D Systems) and 44 μg/mL sheep anti-mouse M280 Dynabeads (Dynal). After a 2 h incubation at RT with shaking, the reaction is read on the ECL M8 Instrument (IGEN Inc.). A low voltage is applied to the ruthenylated TNF-α immune complexes, which in the presence of TPA (the active component in Origlo), results in a cyclical redox reaction generating light at […]. The amount of secreted TNF-α in the presence of compound compared with that in the presence of DMSO vehicle alone (HI control) is calculated using the formula: % control (POC)=(cpd−average LO)/(average HI−average LO)*100. Data (consisting of POC and inhibitor concentration in μM) is fitted to a 4-parameter equation (y=A+((B−A)/(I+((x/C)ˆD))), where A is the minimum y (POC) value, B is the maximum y (POC), C is the x (cpd concentration) at the point of inflection and D is the slope factor) using a Levenburg-Marquardt non-linear regression algorithm.

Consider `c1ccc(CCNc2nccc(N3CCCc4cnc(-c5ccccc5)cc43)n2)cc1` [Example 3, N-Phenethyl-4-(7-phenyl-3,4-dihydro-1,6-naphthyridin-1(2H)-yl)pyrimidin-2-amine], for which the IC50 – broadly, the concentration that gives 50% inhibition – is no more than 20 µM.

With `CC(Cc1cccc(CO)c1)Nc1nccc(N2CCCc3cnc(-c4ccccc4)cc32)n1` (centres unmarked) [Example 4, (3-(2-(4-(7-Phenyl-3,4-dihydro-1,6-naphthyridin-1(2H)-yl)pyrimidin-2-ylamino)-propyl)phenyl)methanol], the IC50 is no more than 20 µM.

As to `CC(Cc1cccc(CN)c1)Nc1nccc(N2CCCc3cnc(-c4ccccc4)cc32)n1` (centres unmarked) [Example 5, N-(1-(3-(Aminomethyl)phenyl)propan-2-yl)-4-(7-phenyl-3,4-dihydro-1,6-naphthyridin-1(2H)-yl)pyrimidin-2-amine], the IC50 is no more than 20 µM.

`CC(C)(C)OC(=O)N1CCC(Nc2nccc(N3CCCc4cnc(-c5ccccc5)cc43)n2)CC1` [Example 7, tert-Butyl 4-(4-(7-phenyl-3,4-dihydro-1,6-naphthyridin-1(2H)-yl)pyrimidin-2-ylamino)piperidine-1-carboxylate] yielded an IC50 of no more than 20 µM.

Consider `c1ccc(-c2cc3c(cn2)CCCN3c2ccnc(NC3CCNCC3)n2)cc1` [Example 8, 4-(7-Phenyl-3,4-dihydro-1,6-naphthyridin-1(2H)-yl)-N-(piperidin-4-yl)pyrimidin-2-amine], for which the IC50 was no more than 20 µM.

Take `CC(=O)N1CCC(Nc2nccc(N3CCCc4cnc(-c5ccccc5)cc43)n2)CC1` [Example 9, 1-(4-(4-(7-Phenyl-3,4-dihydro-1,6-naphthyridin-1(2H)-yl)pyrimidin-2-ylamino)-piperidin-1-yl)ethanone]: the IC50 was no more than 20 µM.

`C[C@@H](Cc1cccc([C@@H](C)N)c1)Nc1nccc(N2CCCc3cnc(-c4ccccc4)cc32)n1` [Example 10, N-((S)-1-(3-((R)-1-Aminoethyl)phenyl)propan-2-yl)-4-(7-phenyl-3,4-dihydro-1,6-naphthyridin-1(2H)-yl)pyrimidin-2-amine] yielded an IC50 of no more than 20 µM.

As to `CC(=O)c1cccc(C[C@H](C)Nc2nccc(N3CCCc4cnc(-c5ccccc5)cc43)n2)c1` [Example 12, (S)-1-(3-(2-(4-(7-Phenyl-3,4-dihydro-1,6-naphthyridin-1(2H)-yl)pyrimidin-2-yl-amino)propyl)phenyl)ethanone], the IC50 is no more than 20 µM.

For `NCC(=O)N1CCC(Nc2nccc(N3CCCc4cnc(-c5ccccc5)cc43)n2)CC1` [Example 13, 2-Amino-1-(4(4-(7-phenyl-3,4-dihydro-1,6-naphthyridin-1(2H)-yl)pyrimidin-2-yl-amino)piperdin-1-yl)ethanone], the IC50 was no more than 20 µM.

As for `CC(C)NCCC(=O)N1CCC(Nc2nccc(N3CCCc4cnc(-c5ccccc5)cc43)n2)CC1` [Example 14, 3-(Isopropylamino)-1-(4(4-(7-phenyl-3,4-dihydro-1,6-naphthyridin-1(2H)-yl)pyrimidin-2-ylamino)piperdin-1-yl)propan-1-one], the IC50 is no more than 20 µM.

Consider `CNCCC(=O)N1CCC(Nc2nccc(N3CCCc4cnc(-c5ccccc5)cc43)n2)CC1` [Example 15, 3-(Methylamino)-1-(4(4-(7-phenyl-3,4-dihydro-1,6-naphthyridin-1(2H)-yl)-pyrimidin-2-ylamino)piperdin-1-yl)propan-1-one], for which the 50% inhibitory concentration (IC50) was no more than 20 µM.

`CCNCCC(=O)N1CCC(Nc2nccc(N3CCCc4cnc(-c5ccccc5)cc43)n2)CC1` [Example 16, 3-(Ethylamino)-1-(4(4-(7-phenyl-3,4-dihydro-1,6-naphthyridin-1(2H)-yl)pyrimidin-2-ylamino)piperdin-1-yl)propan-1-one] yielded an IC50 of no more than 20 µM.

For `COC(=O)[C@@H](Cc1ccccc1)Nc1nccc(N2CCCc3cnc(-c4ccccc4)cc32)n1` [Example 17, (R)-Methyl-3-phenyl-2-(4-(7-phenyl-3,4-dihydro-1,6-naphthyridin-1(2H)-yl)-pyrimidin-2-ylamino)propanoate], the IC50 is no more than 20 µM.

`O=C(O)[C@@H](Cc1ccccc1)Nc1nccc(N2CCCc3cnc(-c4ccccc4)cc32)n1` [Example 18, (R)-3-Phenyl-2-(4-(7-phenyl-3,4-dihydro-1,6-naphthyridin-1(2H)-yl)pyrimidin-2-ylamino)propanoic acid]: the IC50 is no more than 20 µM.

With `O=C(O)C[C@@H](Cc1ccccc1)Nc1nccc(N2CCCc3cnc(-c4ccccc4)cc32)n1` [Example 19, (R)-4-Phenyl-3-(4-(7-phenyl-3,4-dihydro-1,6-naphthyridin-1(2H)-yl)pyrimidin-2-ylamino)butanoic acid], the IC50 is no more than 20 µM.

For the molecule `O=C(C[C@@H](Cc1ccccc1)Nc1nccc(N2CCCc3cnc(-c4ccccc4)cc32)n1)N1CCOCC1` [Example 20, (R)-1-Morpholino-4-phenyl-3-(4-(7-phenyl-3,4-dihydro-1,6-naphthyridin-1(2H)-yl)pyrimidin-2-ylamino)butan-1-one], the IC50 was no more than 20 µM.

For `O=C(C[C@@H](Cc1ccccc1)Nc1nccc(N2CCCc3cnc(-c4ccccc4)cc32)n1)NC1CC1` [Example 21, (R)-N-Cyclopropyl-4-phenyl-3-(4-(7-phenyl-3,4-dihydro-1,6-naphthyridin-1(2H)-yl)pyrimidin-2-ylamino)butanamide], the IC50 is no more than 20 µM.

Regarding `O=C(C[C@@H](Cc1ccccc1)Nc1nccc(N2CCCc3cnc(-c4ccccc4)cc32)n1)N1CCNCC1` [Example 22, (R)-4-Phenyl-3-(4-(7-phenyl-3,4-dihydro-1,6-naphthyridin-1(2H)-yl)pyrimidin-2-ylamino)-1-(piperazin-1yl)butan-1-one], the IC50 was no more than 20 µM.

On to `CC(C)(C)OC(=O)N1CCC(Nc2ncc(F)c(N3CCCc4cnc(-c5ccccc5)cc43)n2)CC1` [Example 24], for which the IC50 was no more than 20 µM.

`Fc1cnc(NC2CCNCC2)nc1N1CCCc2cnc(-c3ccccc3)cc21` [Example 25, 5-Fluoro-4-(7-phenyl-3,4-dihydro-1,6-naphthyridin-1(2H)-yl)-N-(piperidin-4-yl)pyrimidin-2-amine] registered an IC50 of no more than 20 µM.

`CC(=O)N1CCC(Nc2ncc(F)c(N3CCCc4cnc(-c5ccccc5)cc43)n2)CC1` [Example 26, 1-(4-(5-Fluoro-4-(7-phenyl-3,4-dihydro-1,6-naphthyridin-1(2H)-yl)pyrimidin-2-yl-amino)piperidin-1-yl)ethanone] displayed an IC50 of no more than 20 µM.

Molecule `C[C@@H](Cc1cccc(C(C)(C)N)c1)Nc1nccc(N2CCCc3ncc(-c4ccccc4)cc32)n1` [Example 29, (S)-N-(1-(3-(2-Aminopropan-2-yl)phenyl)propan-2-yl)-4-(7-phenyl-3,4-dihydro-1,5-naphthyridin-1(2H)-yl)pyrimidin-2-amine] gave an IC50 of no more than 20 µM.

Regarding `CC(C)(C)OC(=O)N1CCC(Nc2nccc(N3CCCc4ncc(-c5ccccc5)cc43)n2)CC1` [Example 30, tert-Butyl-4(7-phenyl-3,4-dihydro-1,5-naphthylridin-1(2H)-pyrimidin-2-ylamino)-piperidine-1-carboxylate], the IC50 is no more than 20 µM.

For `c1ccc(-c2cnc3c(c2)N(c2ccnc(NC4CCNCC4)n2)CCC3)cc1` [Example 31, 4-(7-Phenyl-3,4-dihydro-1,5-naphthyridin-1(2H)-yl)-N-(piperidin-4-yl)pyrimidin-2-amine], the IC50 was no more than 20 µM.

The molecule `CC(=O)N1CCC(Nc2nccc(N3CCCc4ncc(-c5ccccc5)cc43)n2)CC1` [Example 32, 1-(4-(4-(7-Phenyl-3,4-dihydro-1,5-naphthyridin-1(2H)-yl)pyrimidin-2-ylamino)-piperidin-1-yl)ethanone] had an IC50 of no more than 20 µM.

`NC(=O)[C@@H](Cc1ccccc1)Nc1nccc(N2CCCc3cnc(-c4ccccc4)cc32)n1` [Example 33, (R)-3-Phenyl-2-(4-(7-phenyl-3,4-dihydro-1,6-naphthyridin-1(2H)-yl)pyrimidin-2-ylamino)propanamide]: the IC50 is no more than 20 µM.

Turning to `NC1CCC(Nc2nccc(N3CCCc4cnc(-c5ccccc5)cc43)n2)CC1` [Example 34, (1R,4R)-N^1-(4-(7-Phenyl-3,4-dihydro-1,6-naphthyridin-1(2H)-yl)pyrimidin-2-yl)cyclohexane-1,4-diamine], the IC50 is no more than 20 µM.

Molecule `CC(=O)NC1CCC(Nc2nccc(N3CCCc4cnc(-c5ccccc5)cc43)n2)CC1` [Example 35, N-((1R,4R)-4-(4-(7-Phenyl-3,4-dihydro-1,6-naphthyridin-1(2H)-yl)pyrimidin-2-ylamino)cyclohexyl)acetamide] yielded an IC50 of no more than 20 µM.

`O=C(CC(F)(F)F)NC1CCC(Nc2nccc(N3CCCc4cnc(-c5ccccc5)cc43)n2)CC1` [Example 36, 3,3,3-Trifluoro-N-((1R,4R)-4-(4-(7-phenyl-3,4-dihydro-1,6-naphthyridin-1(2H)-yl)-pyrimidin-2-ylamino)cyclohexyl)propanamide] came in with an IC50 of no more than 20 µM.
